Read-outs that look alike come from different tables or passages of the source.
How the values were obtained:
[1] = Epirubicin glucuronidation assay in normal human liver microsomes; settings: for Formation rate of epirubicin glucuronide: normal liver microsomes, mean ± SD of 47 individuals, epirubicin 200 μM, 3 mg/ml protein, 5 mM UDPGA, 4 h
Description: (§1) For this purpose, dried samples were reconstituted with 0.2 ml of sodium phosphate buffer (0.1 M, pH 6.8) containing 1000 U of β-glucuronidase (type VII, from E. coli) and incubated overnight at 37° C. Reference samples containing no enzyme were treated identically.
(§2) The mobile phase consisted of 30% acetonitrile and 70% 50 mM sodium dihydrogen phosphate (pH adjusted to 4 with 8.5% ortho-phosphoric acid).
(§3) Two separate experiments in triplicate were performed. […] Catalytic efficiencies (Vmax/Km) were also calculated.

[2] = mean ± SD, triplicate
Description: as §1, §2

human UGT2B7 = biological target: T1, human UGT2B7 (Homo sapiens, UniProt P16662); settings: for Formation rate of epirubicin glucuronide: cDNA expressed UGT2B7 microsomes, mean ± SD, triplicate
T1 sequence (P16662 24-529): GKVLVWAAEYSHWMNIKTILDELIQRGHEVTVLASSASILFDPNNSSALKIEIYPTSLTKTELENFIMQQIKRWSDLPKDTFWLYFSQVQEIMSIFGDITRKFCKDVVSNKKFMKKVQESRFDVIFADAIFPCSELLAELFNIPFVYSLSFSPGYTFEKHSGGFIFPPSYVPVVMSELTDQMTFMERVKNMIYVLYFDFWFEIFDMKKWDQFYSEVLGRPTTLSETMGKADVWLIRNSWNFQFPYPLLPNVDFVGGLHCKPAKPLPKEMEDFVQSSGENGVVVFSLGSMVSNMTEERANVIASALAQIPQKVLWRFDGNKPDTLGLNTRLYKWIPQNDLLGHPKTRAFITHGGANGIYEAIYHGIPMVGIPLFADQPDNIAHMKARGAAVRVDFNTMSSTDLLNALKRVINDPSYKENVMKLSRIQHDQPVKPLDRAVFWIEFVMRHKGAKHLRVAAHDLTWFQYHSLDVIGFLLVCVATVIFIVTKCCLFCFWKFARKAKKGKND
Excerpt: Microsomes from human lymphoblasts and insect cells (BTI-TN-5B1-4) both transfected with a vector containing human UGT1A1, UGT1A3, UGT1A4, UGT1A6, UGT1A9 and UGT2B15 complementary DNA (cDNA) and their negative control (microsomes from cells infected with wild-type vector) were obtained from Gentest Corp. (Woburn, Mass.). Microsomes from insect cells (SF-9) infected with a baculovirus containing human cDNA for UGT2B7 and their negative control were purchased from PanVera (Madison, Wis.).
as §1, §2, §3

[3] = among 47 normal liver microsomes
[4] = listed as epirubicin glucuronide

## COc1cccc2c1C(=O)c1c(O)c3c(c(O)c1C2=O)C[C@@](O)(C(=O)CO)C[C@@H]3O[C@H]1C[C@H](N)[C@@H](O[C@@H]2O[C@H](C(=O)O)[C@@H](O)[C@H](O)[C@H]2O)[C@H](C)O1 [Epirubicin glucuronide, 4′-O-β-D-glucuronyl-4′-epi-doxorubicin]
[1]; [3]
  Coefficient of variation of epirubicin glucuronide formation rate: 24%
  Difference in epirubicin glucuronide formation rate among livers: 4 fold
[1]
  Formation rate of epirubicin glucuronide: 138 ± 37 pmol/min/mg
[1]; [4]
  Formation rate of epirubicin glucuronide: 138 ± 37 pmol/min/mg
[1]; pooled human liver microsomes, mean ± SE
  Apparent Vmax of epirubicin glucuronidation: 798 ± 87 pmol/min/mg
[1]; pooled human liver microsomes, mean ± SE, listed as epirubicin glucuronide
  Apparent Vmax of epirubicin glucuronidation: 798 ± 87 pmol/min/mg
[1]; read-out: Apparent Km of epirubicin glucuronidation, pooled human liver microsomes, epirubicin 50-1000 μM, mean ± SE
  Km: 568 ± 130 µM
[2]; CN-I patient n.1 liver microsomes
  Formation rate of epirubicin glucuronide: 144 ± 6 pmol/min/mg
[2]; CN-I patient n.2 liver microsomes
  Formation rate of epirubicin glucuronide: 104 ± 6 pmol/min/mg
Human UGT2B7
  Formation rate of epirubicin glucuronide: 63 ± 4 pmol/min/mg
Human UGT2B7; [4]
  Formation rate of epirubicin glucuronide: 63 ± 4 pmol/min/mg
Human UGT2B7; microsomes (insect baculosomes) expressing UGT2B7, mean ± SE
  Apparent Vmax of epirubicin glucuronidation: 99 ± 4 pmol/min/mg
Human UGT2B7; microsomes (insect baculosomes) expressing UGT2B7, mean ± SE, listed as epirubicin glucuronide
  Apparent Vmax of epirubicin glucuronidation: 99 ± 4 pmol/min/mg
Human UGT2B7; read-out: Apparent Km of epirubicin glucuronidation, microsomes (insect baculosomes) expressing UGT2B7, mean ± SE
  Km: 149 ± 22 µM
